According to PubChem BioAssay AID1918998 (Molecular Pharmacology Branch, DTP, NCI, 2023):
Values belong to the compound of their own block, whether it stands above or below them.

System: 521955-158-R2-J5-PDC complex spheroid growth
Assay: Anticancer human tumor 521955-158-R2-J5-PDC patient-derived pancreatic carcinoma cell line growth inhibition [AhR]
Details: for IC50: curve of first compound; for viability, T/C: stronger effect = lower value
Summary of the method: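 Spheroids combined tumor cells with HUVEC endothelial cells and human MSCs as stroma. AhR antagonists were paired with standard or investigational drugs, each dosed in half-log steps down from near clinical Cmax, or from 10 microM where Cmax was unknown.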

[1] = second compound 0.1 µM, first compound 0.000949 µM
[2] = second compound 0.1 µM, first compound 0.003 µM
[3] = second compound 0.1 µM, first compound 0.00949 µM
[4] = second compound 0.1 µM, first compound 0.03 µM
[5] = second compound 0.1 µM, first compound 0.0949 µM
[6] = second compound 0.1 µM, first compound 0.3 µM
[7] = second compound 0.316 µM, first compound 0.000949 µM
[8] = second compound 0.316 µM, first compound 0.003 µM
[9] = second compound 0.316 µM, first compound 0.00949 µM
[10] = second compound 0.316 µM, first compound 0.03 µM
[11] = second compound 0.316 µM, first compound 0.0949 µM
[12] = second compound 0.316 µM, first compound 0.3 µM
[13] = second compound 1 µM, first compound 0.000949 µM
[14] = second compound 1 µM, first compound 0.003 µM
[15] = second compound 1 µM, first compound 0.00949 µM
[16] = second compound 1 µM, first compound 0.03 µM
[17] = second compound 1 µM, first compound 0.0949 µM
[18] = second compound 1 µM, first compound 0.3 µM
[19] = second compound 3.16 µM, first compound 0.000949 µM
[20] = second compound 3.16 µM, first compound 0.003 µM
[21] = second compound 3.16 µM, first compound 0.00949 µM
[22] = second compound 3.16 µM, first compound 0.03 µM
[23] = second compound 3.16 µM, first compound 0.0949 µM
[24] = second compound 3.16 µM, first compound 0.3 µM
[25] = second compound 10 µM, first compound 0.000949 µM
[26] = second compound 10 µM, first compound 0.003 µM
[27] = second compound 10 µM, first compound 0.00949 µM
[28] = second compound 10 µM, first compound 0.03 µM
[29] = second compound 10 µM, first compound 0.0949 µM
[30] = second compound 10 µM, first compound 0.3 µM
[31] = second compound 0.1 µM, first compound 0.0316 µM
[32] = second compound 0.1 µM, first compound 0.1 µM
[33] = second compound 0.1 µM, first compound 0.316 µM
[34] = second compound 0.1 µM, first compound 1 µM
[35] = second compound 0.1 µM, first compound 3.16 µM
[36] = second compound 0.1 µM, first compound 10 µM
[37] = second compound 0.316 µM, first compound 0.0316 µM
[38] = second compound 0.316 µM, first compound 0.1 µM
[39] = second compound 0.316 µM, first compound 0.316 µM
[40] = second compound 0.316 µM, first compound 1 µM
[41] = second compound 0.316 µM, first compound 3.16 µM
[42] = second compound 0.316 µM, first compound 10 µM
[43] = second compound 1 µM, first compound 0.0316 µM
[44] = second compound 1 µM, first compound 0.1 µM
[45] = second compound 1 µM, first compound 0.316 µM
[46] = second compound 1 µM, first compound 1 µM
[47] = second compound 1 µM, first compound 3.16 µM
[48] = second compound 1 µM, first compound 10 µM
[49] = second compound 3.16 µM, first compound 0.0316 µM
[50] = second compound 3.16 µM, first compound 0.1 µM
[51] = second compound 3.16 µM, first compound 0.316 µM
[52] = second compound 3.16 µM, first compound 1 µM
[53] = second compound 3.16 µM, first compound 3.16 µM
[54] = second compound 3.16 µM, first compound 10 µM
[55] = second compound 10 µM, first compound 0.0316 µM
[56] = second compound 10 µM, first compound 0.1 µM
[57] = second compound 10 µM, first compound 0.316 µM
[58] = second compound 10 µM, first compound 1 µM
[59] = second compound 10 µM, first compound 3.16 µM
[60] = second compound 10 µM, first compound 10 µM
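Wherever viability, T/C is given: spheroids mix tumor cells with HUVEC endothelium and human MSC stroma; luminescence taken as viability surrogate after a week of drug exposure.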

IC50 (second compound 0.1 µM): 16.1 nM
IC50 (second compound 0.316 µM): 16.3 nM
IC50 (second compound 1 µM): 17.3 nM
IC50 (second compound 3.16 µM): 15.1 nM
IC50 (second compound 10 µM): 8.76 nM
SMILES: CC(C)CC(NC(=O)C(Cc1ccccc1)NC(=O)c1cnccn1)B(O)O (stereo not given) + Cc1ccccc1N=Nc1ccc(NC(=O)c2ccnn2C)c(C)c1
viability, T/C [1]: 91.3%
viability, T/C [2]: 77.6%
viability, T/C [3]: 105%
viability, T/C [4]: 0.49%
viability, T/C [5]: 0.24%
viability, T/C [6]: 1.83%
viability, T/C [7]: 95.3%
viability, T/C [8]: 89.4%
viability, T/C [9]: 97.4%
viability, T/C [10]: 0.67%
viability, T/C [11]: 0.36%
viability, T/C [12]: 0.41%
viability, T/C [13]: 127%
viability, T/C [14]: 99.8%
viability, T/C [15]: 101%
viability, T/C [16]: 2.56%
viability, T/C [17]: 2.56%
viability, T/C [18]: 0.41%
viability, T/C [19]: 146%
viability, T/C [20]: 119%
viability, T/C [21]: 82.3%
viability, T/C [22]: 1.3%
viability, T/C [23]: 0.26%
viability, T/C [24]: 0.34%
viability, T/C [25]: 142%
viability, T/C [26]: 153%
viability, T/C [27]: 42.7%
viability, T/C [28]: 1.3%
viability, T/C [29]: 3.29%
viability, T/C [30]: 0.52%

IC50 (second compound 0.1 µM): 4.12 nM
IC50 (second compound 0.316 µM): 4.8 nM
IC50 (second compound 1 µM): 4.66 nM
IC50 (second compound 3.16 µM): 6.4 nM
IC50 (second compound 10 µM): 7.1 nM
SMILES: CCc1c2c(nc3ccc(O)cc13)-c1cc3c(c(=O)n1C2)COC(=O)[C@]3(O)CC + Cc1ccccc1N=Nc1ccc(NC(=O)c2ccnn2C)c(C)c1
viability, T/C [1]: 65.2%
viability, T/C [2]: 56%
viability, T/C [3]: 36.5%
viability, T/C [4]: 27%
viability, T/C [5]: 18.6%
viability, T/C [6]: 13.8%
viability, T/C [7]: 74.3%
viability, T/C [8]: 60.9%
viability, T/C [9]: 34.1%
viability, T/C [10]: 22.3%
viability, T/C [11]: 17%
viability, T/C [12]: 12.9%
viability, T/C [13]: 91.7%
viability, T/C [14]: 61.8%
viability, T/C [15]: 30.2%
viability, T/C [16]: 23.2%
viability, T/C [17]: 17.5%
viability, T/C [18]: 14.3%
viability, T/C [19]: 95.3%
viability, T/C [20]: 78.3%
viability, T/C [21]: 33.9%
viability, T/C [22]: 23.5%
viability, T/C [23]: 15.3%
viability, T/C [24]: 11.7%
viability, T/C [25]: 114%
viability, T/C [26]: 89.8%
viability, T/C [27]: 35.1%
viability, T/C [28]: 24.1%
viability, T/C [29]: 16.2%
viability, T/C [30]: 11.5%

IC50 (second compound 0.1 µM): 5030 nM
IC50 (second compound 0.316 µM): 5290 nM
IC50 (second compound 1 µM): 5680 nM
IC50 (second compound 3.16 µM): 6930 nM
IC50 (second compound 10 µM): 7200 nM
SMILES: Nc1ccccc1NC(=O)c1ccc(CNC(=O)OCc2cccnc2)cc1 + Cc1ccccc1N=Nc1ccc(NC(=O)c2ccnn2C)c(C)c1
viability, T/C [31]: 121%
viability, T/C [32]: 129%
viability, T/C [33]: 130%
viability, T/C [34]: 104%
viability, T/C [35]: 64.6%
viability, T/C [36]: 29.6%
viability, T/C [37]: 95.2%
viability, T/C [38]: 137%
viability, T/C [39]: 147%
viability, T/C [40]: 109%
viability, T/C [41]: 69.8%
viability, T/C [42]: 26.4%
viability, T/C [43]: 135%
viability, T/C [44]: 154%
viability, T/C [45]: 155%
viability, T/C [46]: 116%
viability, T/C [47]: 67.5%
viability, T/C [48]: 34.4%
viability, T/C [49]: 141%
viability, T/C [50]: 164%
viability, T/C [51]: 154%
viability, T/C [52]: 131%
viability, T/C [53]: 71.4%
viability, T/C [54]: 40%
viability, T/C [55]: 165%
viability, T/C [56]: 168%
viability, T/C [57]: 152%
viability, T/C [58]: 129%
viability, T/C [59]: 78.1%
viability, T/C [60]: 38.7%

IC50 (second compound 0.1 µM): 267 nM
IC50 (second compound 0.316 µM): 501 nM
IC50 (second compound 1 µM): 448 nM
IC50 (second compound 3.16 µM): 405 nM
IC50 (second compound 10 µM): 338 nM
SMILES: Nc1ccn(C2OC(CO)C(O)C2(F)F)c(=O)n1 (stereo not given) + Cc1ccccc1N=Nc1ccc(NC(=O)c2ccnn2C)c(C)c1
viability, T/C [31]: 76.7%
viability, T/C [32]: 52.4%
viability, T/C [33]: 57%
viability, T/C [34]: 28.4%
viability, T/C [35]: 13.3%
viability, T/C [36]: 14.5%
viability, T/C [37]: 66.8%
viability, T/C [38]: 52.7%
viability, T/C [39]: 85.8%
viability, T/C [40]: 22.3%
viability, T/C [41]: 13.5%
viability, T/C [42]: 12.5%
viability, T/C [43]: 66.5%
viability, T/C [44]: 52.5%
viability, T/C [45]: 71.2%
viability, T/C [46]: 19.2%
viability, T/C [47]: 13.5%
viability, T/C [48]: 12.4%
viability, T/C [49]: 91.2%
viability, T/C [50]: 69.1%
viability, T/C [51]: 62.3%
viability, T/C [52]: 21.8%
viability, T/C [53]: 13.2%
viability, T/C [54]: 14.4%
viability, T/C [55]: 107%
viability, T/C [56]: 93.8%
viability, T/C [57]: 52.1%
viability, T/C [58]: 21.6%
viability, T/C [59]: 17.8%
viability, T/C [60]: 15.6%

IC50 (second compound 0.1 µM): > 10000 nM
IC50 (second compound 0.316 µM): 6540 nM
IC50 (second compound 1 µM): > 10000 nM
IC50 (second compound 3.16 µM): 2920 nM
IC50 (second compound 10 µM): 3550 nM
SMILES: O=C(C=Cc1cccc(S(=O)(=O)Nc2ccccc2)c1)NO + Cc1ccccc1N=Nc1ccc(NC(=O)c2ccnn2C)c(C)c1
viability, T/C [31]: 95.4%
viability, T/C [32]: 104%
viability, T/C [33]: 121%
viability, T/C [34]: 96%
viability, T/C [35]: 72.6%
viability, T/C [36]: 52%
viability, T/C [37]: 102%
viability, T/C [38]: 115%
viability, T/C [39]: 128%
viability, T/C [40]: 89.2%
viability, T/C [41]: 65.5%
viability, T/C [42]: 41.5%
viability, T/C [43]: 105%
viability, T/C [44]: 136%
viability, T/C [45]: 136%
viability, T/C [46]: 102%
viability, T/C [47]: 59.5%
viability, T/C [48]: 48.9%
viability, T/C [49]: 105%
viability, T/C [50]: 116%
viability, T/C [51]: 154%
viability, T/C [52]: 93.7%
viability, T/C [53]: 54.2%
viability, T/C [54]: 39.4%
viability, T/C [55]: 147%
viability, T/C [56]: 146%
viability, T/C [57]: 129%
viability, T/C [58]: 87.9%
viability, T/C [59]: 56.6%
viability, T/C [60]: 24.9%

IC50 (second compound 0.1 µM): > 10000 nM
IC50 (second compound 0.316 µM): > 10000 nM
IC50 (second compound 1 µM): > 10000 nM
IC50 (second compound 3.16 µM): > 10000 nM
IC50 (second compound 10 µM): > 10000 nM
SMILES: O=C(c1cc(Cc2n[nH]c(=O)c3ccccc23)ccc1F)N1CCN(C(=O)C2CC2)CC1 + Cc1ccccc1N=Nc1ccc(NC(=O)c2ccnn2C)c(C)c1
viability, T/C [31]: 101%
viability, T/C [32]: 83.6%
viability, T/C [33]: 98.5%
viability, T/C [34]: 104%
viability, T/C [35]: 73.6%
viability, T/C [36]: 63.1%
viability, T/C [37]: 90%
viability, T/C [38]: 85.7%
viability, T/C [39]: 101%
viability, T/C [40]: 88.6%
viability, T/C [41]: 80.8%
viability, T/C [42]: 77.8%
viability, T/C [43]: 134%
viability, T/C [44]: 107%
viability, T/C [45]: 136%
viability, T/C [46]: 89.8%
viability, T/C [47]: 93%
viability, T/C [48]: 63.6%
viability, T/C [49]: 124%
viability, T/C [50]: 109%
viability, T/C [51]: 129%
viability, T/C [52]: 106%
viability, T/C [53]: 118%
viability, T/C [54]: 98%
viability, T/C [55]: 141%
viability, T/C [56]: 155%
viability, T/C [57]: 148%
viability, T/C [58]: 131%
viability, T/C [59]: 113%
viability, T/C [60]: 103%
